# Tested on: db/db mouse
# Test: Antidiabetic activity in db/db mouse (drop in glycaemia after oral administration)
# Format: in vivo
# Details: 8 weeks old, 200 mg/kg per os, blood from tail, glucometer; for Drop in glycaemia (in % of the initial value) After 1 hour: 1 hour after administration; for Drop in glycaemia (in % of the initial value) After 2 hours: 2 hours after administration
# Experimental: The antidiabetic activity of the compounds of formula (I) orally on a type 2 diabetes animal model, the db/db mouse, was tested. Diabetic mice are used at the age of 8 weeks; they then have very high hyperglycaemia. The animals are stabilised at a minimum for one week after reception and up to the day of experimentation in an animal house at a temperature regulated at 21°-22° C. and subjected to a fixed cycle of light (from 7 a.m. to 7 p.m.) and darkness (from 7 p.m. to 7 a.m.). Their food consisted of a maintenance regime; water and food were supplied “ad libitum”. The mice are treated orally with the product to be tested (200 mg/kg per os) in suspension in a mixture of water and methyl cellulose or the vehicle (mixture of water and methyl cellulose) in the morning of the day of the experimentation. Just before the administration of the product and one and two hours after the administration of the product, a blood sample (one drop of blood) is taken following a small incision in the tail for determining glycaemia. This glycaemia is measured by means of a glucometer (Lifescan OneTouch Ultra, LifeScan, Johnson-Johnson Company) and OneTouchUltra glycaemia measurement strips.
SMILES,Drop in glycaemia (in % of the initial value) After 1 hour,Drop in glycaemia (in % of the initial value) After 2 hours
"CN(C)C(=N)N=C(N)N [Metformin, reference compound]",22%,27%
O=C(O)CCC(=O)c1ccc(OCCN2CCN(c3ccc(F)cc3)CC2)cc1 [Compound 5],5%,23%
COc1cccc(N2CCN(CCOc3ccc(C(=O)CCC(=O)O)cc3)CC2)c1 [Compound 12],19%,32%
O=C(O)CCC(=O)c1ccc(OCCN2CCN(c3ccccn3)CC2)cc1 [Compound 10],23%,39%
O=C(O)CCC(=O)c1ccc(OCCN2CCN(c3cccc(F)c3)CC2)cc1 [Compound 4],9%,20%
O=C(O)CCC(=O)c1ccc(OCCN2CCN(c3ccccc3F)CC2)cc1 [Compound 3],23%,29%
COc1ccc(N2CCN(CCOc3ccc(C(=O)CCC(=O)O)cc3)CC2)cc1 [Compound 2],7%,12%

# — US9150529B2, “Piperazine derivatives, methods for preparing same, and uses thereof in the treatment of insulin resistance” (METABOLYS, priority 2011, dated 2015)
